Reference: US5424456A, “N-arylalkylderivatives of 2-aminomethyl-2,3-dihydro-1,4-benzodioxine and the process of preparation thereof” (Vyzkumny Ustav Pro Farmacii A Biochemii s.p., priority 1991, dated 1995)
Where two headings read alike, the source gives them in different places.

Assays:
blood pressure = assay: Hypotensive activity, pentobarbital anaesthesized dogs; format: in vivo, dog
Text: b) The blood pressure of pentobarbital anaesthesized dogs was registered invasively in arteria femoralis. The average decrease in systolic (SBP) arid diastolic (DBP) blood pressure expressed in per cents of the starting blood pressure level after intravenous and oral administration is shown in Tables 5 and 6.

[1] = system: rat peripheral venous thrombosis; assay: Antithrombotic activity, rat peripheral venous thrombosis in closed abdominal part of vena cava; format: in vivo; conditions: rats, read-out: statistically significant effective dose (mass of thrombi)
Description: The antithrombotic activity of the test compounds was established using the model of rat peripheral venous thrombosis in a closed abdominal part of vena cava. The thrombus was induced by intravenous administration of hypotonic solution of sodium chloride. The thrombus was freed 10 minutes after induction and weighted. The mass of thrombi in control animals was compared to the mass of thrombi of animals administered by the test compound. The statistically significant effective dose for compound VUFB 17951 was 0.5 mg/kg intravenously and 5 mg/kg orally and for the compound VUFB 17959 0.25 mg/kg and 1.0 mg/kg, respectively. The corresponding dose of a standard (Cilostazol, generic name, Merck index, 11th Edition, 2277) was 25 mg/kg orally.

[2] = system: urinary bladder sphincter; assay: Effect on the opening pressure of the urinary bladder sphincter; format: in vivo, rat; conditions: rats, compared with prazosin or terazosin; for lowering of the opening pressure of the urinary bladder sphincter: corresponding doses
[3] = i.v., 0.45 mg/kg, value 1 of 5 (heads 5/30/60/180 min; probably 1 min)
[4] = i.v., 0.45 mg/kg, value 2 of 5 (heads 5/30/60/180 min; probably 5 min)
[5] = i.v., 0.45 mg/kg, value 3 of 5 (heads 5/30/60/180 min; probably 30 min)
[6] = i.v., 0.45 mg/kg, value 4 of 5 (heads 5/30/60/180 min; probably 60 min)
[7] = i.v., 0.45 mg/kg, value 5 of 5 (heads 5/30/60/180 min; probably 180 min)
[8] = i.v., 4.5 mg/kg, value 1 of 5 (heads 5/30/60/180 min; probably 1 min)
[9] = i.v., 4.5 mg/kg, value 2 of 5 (heads 5/30/60/180 min; probably 5 min)
[10] = i.v., 4.5 mg/kg, value 3 of 5 (heads 5/30/60/180 min; probably 30 min)
[11] = i.v., 4.5 mg/kg, value 4 of 5 (heads 5/30/60/180 min; probably 60 min)
[12] = i.v., 4.5 mg/kg, value 5 of 5 (heads 5/30/60/180 min; probably 180 min)
[13] = i.v., 0.46 mg/kg, value 1 of 5 (heads 5/30/60/180 min; probably 1 min)
[14] = i.v., 0.46 mg/kg, value 2 of 5 (heads 5/30/60/180 min; probably 5 min)
[15] = i.v., 0.46 mg/kg, value 3 of 5 (heads 5/30/60/180 min; probably 30 min)
[16] = i.v., 0.46 mg/kg, value 4 of 5 (heads 5/30/60/180 min; probably 60 min)
[17] = i.v., 0.46 mg/kg, value 5 of 5 (heads 5/30/60/180 min; probably 180 min)
[18] = i.v., 4.6 mg/kg, value 1 of 5 (heads 5/30/60/180 min; probably 1 min)
[19] = i.v., 4.6 mg/kg, value 2 of 5 (heads 5/30/60/180 min; probably 5 min)
[20] = i.v., 4.6 mg/kg, value 3 of 5 (heads 5/30/60/180 min; probably 30 min)
[21] = i.v., 4.6 mg/kg, value 4 of 5 (heads 5/30/60/180 min; probably 60 min)
[22] = i.v., 4.6 mg/kg, value 5 of 5 (heads 5/30/60/180 min; probably 180 min)

For `Cc1ccccc1C(C#N)(CCCNCC1COc2ccccc2O1)C(C)C` (racemic) [VUFB 17959, 5-(2,3-dihydro-1,4-benzodioxin-2-ylmethylamino)-2-isopropyl-2-(2-methylphenyl) valeronitrile], the “decrease in diastolic blood pressure (DBP)” value (“decrease … (DBP)” below) (blood pressure; [3]) was -52 per cents, the “decrease in systolic blood pressure (SBP)” value (shortened to “decrease … (SBP)”) (blood pressure; [3]) was -16 per cents and the “decrease … (DBP)” value (blood pressure; [4]) was -23 per cents. The “decrease … (SBP)” value (blood pressure; [4]) was -23 per cents, the “decrease … (DBP)” value (blood pressure; [5]) was -16 per cents and the “decrease … (SBP)” value (blood pressure; [5]) was -14 per cents. The “decrease … (DBP)” value (blood pressure; [6]) was -16 per cents, the “decrease … (SBP)” value (blood pressure; [6]) was -13 per cents and the “decrease … (DBP)” value (blood pressure; [7]) was -2 per cents. The “decrease … (SBP)” value (blood pressure; [7]) was -6 per cents, the “decrease … (DBP)” value (blood pressure; [8]) was -63 per cents and the “decrease … (SBP)” value (blood pressure; [8]) was -43 per cents. The “decrease … (DBP)” value (blood pressure; [9]) was -46 per cents, the “decrease … (SBP)” value (blood pressure; [9]) was -43 per cents and the “decrease … (DBP)” value (blood pressure; [10]) was -29 per cents. For the same compound, the “decrease … (SBP)” value (blood pressure; [10]) was -31 per cents, the “decrease … (DBP)” value (blood pressure; [11]) was -25 per cents and the “decrease … (SBP)” value (blood pressure; [11]) was -23 per cents. The “decrease … (DBP)” value (blood pressure; [12]) was -14 per cents, the “decrease … (SBP)” value (blood pressure; [12]) was -17 per cents and the “decrease … (DBP)” value (blood pressure; p.o., 4.2 mg/kg, 15 min) was -5 per cents. For the same compound, the “decrease … (SBP)” value (blood pressure; p.o., 4.2 mg/kg, 15 min) was -5 per cents, the “decrease … (DBP)” value (blood pressure; p.o., 4.2 mg/kg, 30 min) was -20 per cents and the “decrease … (SBP)” value (blood pressure; p.o., 4.2 mg/kg, 30 min) was -16 per cents. The “decrease … (DBP)” value (blood pressure; p.o., 4.2 mg/kg, 60 min) was -20 per cents, the “decrease … (SBP)” value (blood pressure; p.o., 4.2 mg/kg, 60 min) was -18 per cents and the “decrease … (DBP)” value (blood pressure; p.o., 4.2 mg/kg, 120 min) was -20 per cents. The “decrease … (SBP)” value (blood pressure; p.o., 4.2 mg/kg, 120 min) was -20 per cents, the “decrease … (DBP)” value (blood pressure; p.o., 4.2 mg/kg, 300 min) was -21 per cents and the “decrease … (SBP)” value (blood pressure; p.o., 4.2 mg/kg, 300 min) was -23 per cents. The minimal effective dose ([1]; iv, intravenously) was 0.25 mg/kg, the minimal effective dose ([1]; po, orally) was 1 mg/kg and the “duration of action on opening pressure of the urinary bladder sphincter” value [2] was “longer duration of action”. For the same compound, the “lowering of the opening pressure of the urinary bladder sphincter” value [2] was “lowered the opening pressure of the urinary bladder sphincter of rats in corresponding doses in the same extent as prazosin”.

With `COc1ccc(C(C#N)(CCCNCC2COc3ccccc3O2)C(C)C)cc1OC` (racemic) [VUFB 17951, 5-(2,3-Dihydro-1,4-benzodioxin-2-ylmethylamino)-2-(3,4-dimethoxyphenyl)-2-isopropyl valeronitrile] the “decrease … (DBP)” value (blood pressure; [13]) was -52 per cents, the “decrease … (SBP)” value (blood pressure; [13]) was -46 per cents and the “decrease … (DBP)” value (blood pressure; [14]) was -46 per cents. For the same compound, the “decrease … (SBP)” value (blood pressure; [14]) was -47 per cents, the “decrease … (DBP)” value (blood pressure; [15]) was -40 per cents and the “decrease … (SBP)” value (blood pressure; [15]) was -41 per cents. For the same compound, the “decrease … (DBP)” value (blood pressure; [16]) was -36 per cents, the “decrease … (SBP)” value (blood pressure; [16]) was -41 per cents and the “decrease … (DBP)” value (blood pressure; [17]) was -28 per cents. The “decrease … (SBP)” value (blood pressure; [17]) was -26 per cents, the “decrease … (DBP)” value (blood pressure; [18]) was -53 per cents and the “decrease … (SBP)” value (blood pressure; [18]) was -46 per cents. The “decrease … (DBP)” value (blood pressure; [19]) was -49 per cents, the “decrease … (SBP)” value (blood pressure; [19]) was -48 per cents and the “decrease … (DBP)” value (blood pressure; [20]) was -47 per cents. For the same compound, the “decrease … (SBP)” value (blood pressure; [20]) was -42 per cents, the “decrease … (DBP)” value (blood pressure; [21]) was -42 per cents and the “decrease … (SBP)” value (blood pressure; [21]) was -40 per cents. The “decrease … (DBP)” value (blood pressure; [22]) was -34 per cents, the “decrease … (SBP)” value (blood pressure; [22]) was -31 per cents and the “decrease … (DBP)” value (blood pressure; p.o., 4.6 mg/kg, 15 min) was -9 per cents. The “decrease … (SBP)” value (blood pressure; p.o., 4.6 mg/kg, 15 min) was -9 per cents, the “decrease … (DBP)” value (blood pressure; p.o., 4.6 mg/kg, 30 min) was -11 per cents and the “decrease … (SBP)” value (blood pressure; p.o., 4.6 mg/kg, 30 min) was -11 per cents. The “decrease … (DBP)” value (blood pressure; p.o., 4.6 mg/kg, 60 min) was -13 per cents, the “decrease … (SBP)” value (blood pressure; p.o., 4.6 mg/kg, 60 min) was -14 per cents and the “decrease … (DBP)” value (blood pressure; p.o., 4.6 mg/kg, 120 min) was -14 per cents. The “decrease … (SBP)” value (blood pressure; p.o., 4.6 mg/kg, 120 min) was -19 per cents, the “decrease … (DBP)” value (blood pressure; p.o., 4.6 mg/kg, 300 min) was -19 per cents and the “decrease … (SBP)” value (blood pressure; p.o., 4.6 mg/kg, 300 min) was -24 per cents. For the same compound, the minimal effective dose ([1]; iv, intravenously) was 0.5 mg/kg, the minimal effective dose ([1]; po, orally) was 5 mg/kg and the “duration of action on opening pressure of the urinary bladder sphincter” value [2] was “longer duration of action”. The “lowering of the opening pressure of the urinary bladder sphincter” value [2] was “lowered the opening pressure of the urinary bladder sphincter of rats in corresponding doses in the same extent as prazosin”.
